Patent US9849130B2 (KamTek, Inc., priority 2014, dated 2017)
Values joined by “and” are separate entries in the source; they are usually repeats but may differ in a detail not shown here. Equal values may be shown once. Read-outs that look alike come from different tables or passages of the source.

Tests used:
[1] = system: Clostridium difficile (CD) strains; test: microbe, parasite or virus in culture; assay type: cell-based
[2] = system: Enterococcus faecalis; test: MIC by microdilution in Mueller-Hinton broth against Enterococcus faecalis strains; assay type: cell-based; settings: Enterococcus faecalis
[3] = system: Escherichia coli strains; test: MIC by microdilution in Mueller-Hinton broth against Escherichia coli strains; assay type: cell-based; settings: for MIC: Escherichia coli, Mueller-Hinton broth, read-out: MIC
[4] = system: Enterococci faecium; test: MIC by microdilution in Mueller-Hinton broth against Enterococci faecium strains; assay type: cell-based, Enterococcus faecium; settings: Enterococcus faecium, Mueller-Hinton broth, read-out: MIC
[5] = system: Staphylococcus aureus strains; test: MIC by microdilution in Mueller-Hinton broth against Staphylococcus aureus strains; assay type: cell-based; settings: Staphylococcus aureus
[6] = system: Bacteroides Strains; test: MIC by microdilution in Brucella broth against Bacteroides strains; assay type: cell-based, Bacteroides spp.
[7] = E. faecalis NR 31884, read-out: MIC
[8] = E. faecalis NR 31885, read-out: MIC
[9] = E. faecalis NR 31886, read-out: MIC
[10] = E. faecalis NR 31887, read-out: MIC
[11] = E. faecalis NR 31888, read-out: MIC
[12] = Escherichia coli strain NR 17626
[13] = Escherichia coli strain NR 17627
[14] = Escherichia coli strain NR 17633
[15] = Escherichia coli strain NR 17647
[16] = Escherichia coli strain NR 17650
[17] = Escherichia coli strain NR 17661
[18] = S. aureus NR 10129, read-out: MIC
[19] = S. aureus NR 10186, read-out: MIC
[20] = S. aureus NR 10187, read-out: MIC
[21] = S. aureus NR 10188, read-out: MIC
[22] = S. aureus NR 10189, read-out: MIC
[23] = S. aureus NR 10191, read-out: MIC
[24] = S. aureus NR 10192, read-out: MIC
[25] = S. aureus NR 10193, read-out: MIC
[26] = S. aureus NR 10194, read-out: MIC
[27] = S. aureus NR 10198, read-out: MIC
[28] = Staphylococcus aureus strain NR 10129, read-out: MIC
[29] = Staphylococcus aureus strain NR 10186, read-out: MIC
[30] = Staphylococcus aureus strain NR 10187, read-out: MIC
[31] = Staphylococcus aureus strain NR 10188, read-out: MIC
[32] = Staphylococcus aureus strain NR 10189, read-out: MIC
[33] = Staphylococcus aureus strain NR 10191, read-out: MIC
[34] = Staphylococcus aureus strain NR 10192, read-out: MIC
[35] = Staphylococcus aureus strain NR 10193, read-out: MIC
[36] = Staphylococcus aureus strain NR 10194, read-out: MIC
[37] = Staphylococcus aureus strain NR 10198, read-out: MIC

CC1(C)CC(N=c2cc3n(-c4ccc(Cl)c(Cl)c4)c4ccccc4nc-3cc2Nc2ccc(Cl)c(Cl)c2)CC(C)(C)N1 [B4100]
0.25 µg/mL and 0.125 µg/mL: MIC [1]

NCC[C@H](O)C(=O)N[C@@H]1C[C@H](N)[C@@H](O[C@H]2O[C@H](CN)[C@@H](O)[C@H](O)[C@H]2O)[C@H](O)[C@H]1O[C@H]1O[C@H](CO)[C@@H](O)[C@H](N)[C@H]1O [AMK, amikacin]
32 µg/mL: MIC [5, 19] | MIC [5, 23] | MIC [5, 26] | MIC [5, 29] | MIC [5, 33] | MIC [5, 36]
4 µg/mL: MIC ([3]; E. coli NR 6) | MIC ([3]; E. coli NR 8) | MIC ([3]; Escherichia coli strain NR 6) | MIC ([3]; Escherichia coli strain NR 8) | MIC [5, 22] | MIC [5, 32]
16 µg/mL: MIC ([3]; E. coli NR 17626) | MIC [3, 12]
> 32 µg/mL: MIC [2, 7] | MIC [2, 8] | MIC [2, 9] | MIC [2, 10] | MIC [2, 11] | MIC ([4]; E. faecium NR 31903) | MIC ([4]; E. faecium NR 31909) | MIC ([4]; E. faecium NR 31912) | MIC ([4]; E. faecium NR 31915) | MIC ([4]; E. faecium NR 31916) | MIC [5, 20] | MIC [5, 21] | MIC [5, 24] | MIC [5, 25] | MIC [5, 27] | MIC [5, 30] | MIC [5, 31] | MIC [5, 34] | MIC [5, 35] | MIC [5, 37]
8 µg/mL: MIC ([3]; E. coli NR 96) | MIC ([3]; E. coli NR 17627) | MIC ([3]; E. coli NR 17633) | MIC ([3]; E. coli NR 17650) | MIC ([3]; Escherichia coli strain NR 96) | MIC [3, 13] | MIC [3, 14] | MIC [3, 16]
2 µg/mL: MIC ([3]; E. coli NR 104) | MIC ([3]; E. coli NR 17647) | MIC ([3]; E. coli NR 17661) | MIC ([3]; Escherichia coli strain NR 104) | MIC [3, 15] | MIC [3, 17] | MIC [5, 18] | MIC [5, 28]

O=C1C(NC2CCCCCCC2)=CC(=O)c2ncccc21 [AZQ, 6-(cyclooctylamino)-5,8-quinolinequinone]
16 µg/mL: MIC [2, 10] | MIC ([4]; E. faecium NR 31916) | MIC [5, 19] | MIC [5, 22] | MIC [5, 25] | MIC [5, 26] | MIC [5, 27]
no activity: activity against E. coli (in words) [3]
0.25 to 1 µg/mL: MIC Range [1]
1 µg/mL: MIC ([6]; B. ovatus HM222, read-out: MIC) | MIC ([6]; Bacteroides, B. spp. HM27) | MIC90 ([1]; Clostridioides difficile)
4 µg/mL: MIC ([6]; Bacteroides, B. spp. HM19) | MIC ([6]; Bacteroides, B. spp. HM58)
> 32 µg/mL: MIC ([3]; E. coli NR 6) | MIC ([3]; E. coli NR 8) | MIC ([3]; E. coli NR 96) | MIC ([3]; E. coli NR 104) | MIC ([3]; E. coli NR 17626) | MIC ([3]; E. coli NR 17627) | MIC ([3]; E. coli NR 17633) | MIC ([3]; E. coli NR 17647) | MIC ([3]; E. coli NR 17650) | MIC ([3]; E. coli NR 17661) | MIC ([4]; E. faecium NR 31903) | MIC ([4]; E. faecium NR 31915) | MIC [5, 20]
2 µg/mL: MIC ([6]; B. caccae HM728, read-out: MIC) | MIC ([6]; B. eggerthii HM210, read-out: MIC) | MIC ([6]; B. fragilis HM709, read-out: MIC) | MIC ([6]; B. fragilis HM710, read-out: MIC) | MIC ([6]; B. fragilis HM714, read-out: MIC) | MIC ([6]; B. stercoris HM1036, read-out: MIC) | MIC ([6]; Bacteroides, B. spp. HM23, read-out: MIC)
32 µg/mL: MIC [2, 7] | MIC [2, 8] | MIC [2, 9] | MIC [2, 11] | MIC ([4]; E. faecium NR 31909) | MIC ([4]; E. faecium NR 31912) | MIC [5, 18] | MIC [5, 21] | MIC [5, 24]
8 µg/mL: MIC [5, 23]

CC1(C)S[C@@H]2[C@H](NC(=O)[C@H](N)c3ccccc3)C(=O)N2[C@H]1C(=O)O [AMP, ampicillin]
4 µg/mL: MIC [2, 7] | MIC [2, 8] | MIC [2, 9] | MIC [2, 11] | MIC ([3]; E. coli NR 8) | MIC ([3]; E. coli NR 96) | MIC ([3]; E. coli NR 104) | MIC ([3]; E. coli NR 17626) | MIC ([3]; E. coli NR 17627) | MIC ([3]; E. coli NR 17633) | MIC ([3]; E. coli NR 17647) | MIC ([3]; E. coli NR 17650) | MIC ([3]; Escherichia coli strain NR 8) | MIC ([3]; Escherichia coli strain NR 96) | MIC ([3]; Escherichia coli strain NR 104) | MIC [3, 12] | MIC [3, 13] | MIC [3, 14] | MIC [3, 15] | MIC [3, 16]
8 µg/mL: MIC [5, 20] | MIC [5, 30]
> 32 µg/mL: MIC ([3]; E. coli NR 17661) | MIC [3, 17] | MIC ([4]; E. faecium NR 31903) | MIC ([4]; E. faecium NR 31909) | MIC ([4]; E. faecium NR 31912) | MIC ([4]; E. faecium NR 31916) | MIC [5, 18] | MIC [5, 19] | MIC [5, 23] | MIC [5, 25] | MIC [5, 27] | MIC [5, 28] | MIC [5, 29] | MIC [5, 33] | MIC [5, 35] | MIC [5, 37]
32 µg/mL: MIC [5, 22] | MIC [5, 24] | MIC [5, 32] | MIC [5, 34]
2 µg/mL: MIC ([3]; E. coli NR 6) | MIC ([3]; Escherichia coli strain NR 6) | MIC ([4]; E. faecium NR 31915) | MIC [5, 26] | MIC [5, 36]
0.5 µg/mL: MIC [2, 10]
16 µg/mL: MIC [5, 21] | MIC [5, 31]
